PubChem BioAssay AID652132 (Broad Institute, 2013)

Tested on: Signal transducer and activator of transcription 1 (STAT1), rat
Assay: reduction of cytokine-raised STAT1 and pSTAT1, late-stage follow-up, mechanism study, cell-based, rat, cytokine stimulus, time course (AID 652132)
Settings: INS-1E cells, cytokine-induced STAT1/pSTAT1 western blot, at 10 µM, stronger effect = higher value

C[C@@H]1CN([C@@H](C)CO)C(=O)c2cccc(NC(=O)Nc3cccc4ccccc34)c2O[C@H]1CN(C)S(=O)(=O)c1ccc2c(c1)OCCO2
p-STAT1 inhibition, 24 h: 65%
inhibition (measured here: p-STAT1 inhibition 8 h): 97%
inhibition (measured here: p-STAT1 inhibition 12 h): 80%
inhibition (measured here: total STAT1 inhibition 8 h): 69%
inhibition (measured here: total STAT1 inhibition 12 h): 53%
inhibition (measured here: total STAT1 inhibition 24 h): 43%
